Laboratory results reported in patent US20240342186A1, “PYRIDINE DERIVATIVES WITH N-LINKED CYCLIC SUBSTITUENTS AS cGAS INHIBITORS” (Boehringer Ingelheim International GmbH, priority 2021, published 2024).
Read-outs that look alike come from different tables or passages of the source.

Columns and labels:
cGAS = cGAS (Homo sapiens (Human), UniProt Q8N884); assay: Human cGAS enzyme assay (hcGAS IC50, in vitro), cGAMP formation by RapidFire MS; assay type: biochemical; settings: biochemical (in vitro) cGAS inhibition;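 note: enzyme activated by 45 bp dsDNA with GTP and ATP (30 µM each), 60 min compound pre-incubation then 90 min reaction, cGAMP relative to cyclic-di-GMP internal standard, 8-point dilutions up to 10 µM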
[1] = test system: cellular cGAS activity in baculovirus-stimulated THP1-Dual cells (IRF dependent Lucia luciferase reporter); assay: Human cGAS cell assay: inhibition of IFN induction in virus-stimulated THP1 cells (THP1(vir) IC50); assay type: cell-based; settings: Homo sapiens, THP1-Dual
Excerpt: (§1) 6.2 Method: Human cGAS Cell Assay and cGAMP Stimulated Counter Cell Assay (THP1(vir) IC50 and THP1(cGAMP) IC50)
(§2) THP1-Dual™ cells (InvivoGen #thpd-nfis) expressing IRF dependent Lucia luciferase reporter were used as basis for both assays. For the detection of cellular cGAS activity cells were stimulated by a baculovirus (pFastbac-1, Invitrogen, no coding insert) infection that delivers the cGAS enzyme stimulating double-stranded DNA (measurement of THP1(vir) IC50).
(§3) For the counter assay, cells were stimulated by cGAMP (SigmaAldrich #SML1232) to activate the identical pathway independent and directly downstream of cGAS (measurement of THP1(cGAMP) IC50). Pathway activity was monitored by measuring the Lucia luciferase activity induced by either DNA stimulated cGAS enzyme activity (measurement of THP1(vir) IC50) or by cGAMP directly (measurement of THP1(cGAMP) IC50, counter assay).
(§4) Compounds were delivered in 10 mM DMSO solution, serially diluted and transferred to the 384 well assay plate (Greiner #781201) using an Echo acoustic dispenser. Typically, 8 concentrations were used with the highest concentration at 10 μM in the final assay volume followed by ˜1:5 dilution steps. DMSO concentration was set to 1% in the final assay volume. The 384 well assay plate contained 21 test compounds (column 1-22), and DMSO in column 23 and 24.
(§5) Cells, cultivated according to manufacturer conditions, were harvested by centrifugation at 300 g/10 min and were then resuspended and diluted to 1.66E5 cells/ml in fresh cell culture medium (RPMI 1640 (Gibco #A10491-01), 10% FCS (Gibco #10500), 1× GlutaMax (Gibco #35050-061), 1× Pen/Strep solution (Gibco #15140-122), 100 μg/ml Normocin (InvivoGen #ant-nr), 100 μg/ml Zeocin (InvivoGen #ant-zn), 10 μg/ml Blasticidin S (Life Technologies #A11139-03)). The baculovirus solution was then added 1:200 (have varied according to virus batch) to the cells (measurement of THP1(vir) IC50).
(§6) 30 μL of the cell/virus-mix were added to each well of the compound plate from column 1-23 via MultiDrop Combi dispenser (5000 cells/well). In column 24, 30 μl/5000 cells/well without virus were added as a low control.
(§7) The plates were then incubated for 18 h at 37° C. in a humidified incubator.
(§8) Following that, 15 μl of QuantiLuc detection reagent (InvivoGen #rep-qlcg5) were added to each well using a MultiDrop Combi. Measurement was done immediately after the addition using an EnVision reader (US-luminescence read-mode).
(§9) For data evaluation and calculation, the measurement of the low control was set as 0% control and the measurement of the high control was set as 100% control. The IC50 values were calculated using the standard 4 parameter logistic regression formula. Calculation: [y=(a−d)/(1+(x/c)^b)+d], a=low value, d=high value; x=conc M; c=IC50 M; b=slope

[2] = test system: cGAMP-stimulated THP1-Dual cells (pathway directly downstream of cGAS); assay: cGAMP stimulated counter cell assay: inhibition of IFN induction in cGAMP-stimulated THP1 cells (THP1(cGAMP) IC50); assay type: cell-based, human; settings: for IC50: Homo sapiens, THP1-Dual; for Ratio THP1(cGAMP) IC50 / THP1(vir) IC50: selectivity for cGAS inhibition
Excerpt: as §1, §2, §3, §4, §5, §6, §7, §8, §9

[3] = test system: cellular cGAS activity in dsDNA-stimulated human whole blood; assay: Human whole blood assay (hWB IC50): IFNα2α production after dsDNA transfection; assay type: cell-based; settings: inhibition of IFN induction in dsDNA-stimulated human whole blood
Experimental: 6.3 Method: Human Whole Blood Assay (Human WB IC50)
For the detection of cellular cGAS activity human whole blood was stimulated by transfection with double stranded DNA. Pathway activity was monitored by measuring the IFNα2α production.
Compounds were delivered as 10 mM DMSO solution and serially diluted and transferred to the 96-well cell culture plate (Corning #3595), prefilled with 20 μl OptiMEM (Gibco, #11058-021) in each well, using an Echo acoustic dispenser. Typically, 8 concentrations were used with the highest concentration at 10 µM in the final assay volume followed by ˜1:5 dilution steps. DMSO concentration was set to 0.1% in the final assay volume. The 96-well assay plate contained 10 test compounds, and DMSO in control wells.
Collection of human whole blood from 3 or more healthy donors (male or female, no medication for 7 days except contraceptive and thyroxine) as Na-Citrate blood (e.g. 3.8% in Monovettes from Sarstedt) was conducted in parallel. Whole blood was kept at room temperature for a maximum of 3 hours after collection until use in the assay.
160 μl of the whole blood samples was transferred to each well of the 96-well assay plates filled with compound/OptiMEM. All assay plates were prepared as duplicates with blood from different donors. Blood plates were kept at room temperature for 60 minutes and continuous shaking with 450 rpm, covered with the lid, but not sealed.
20 μl OptiMEM and 9.6:1 Fugene was added to all low control wells.
After covering assay plates with aera seals and the lid, blood plates were kept at room temperature for 30 minutes and continuous shaking with 450 rpm, followed by an overnight incubation of 22 h at 37° C. in the incubator, without shaking.
For the detection of IFNα-2α in human plasma, the biotinylated capture antibody (Antibody set IFNA2, Meso Scale Diagnostics #B21VH-3, including coating and capture antibody) was diluted 1:17.5 in Diluent 100 (Meso Scale Diagnostics #R^50AA-4), according to the manufacturer's directions. U-Plex MSD GOLD 96-well Small Spot Strepavidin SECTOR Plates (Meso Scale Diagnostics #L45SA-5) were coated with 25 μl diluted capture antibody. Coated plates were incubated for 60 min at room temperature under continuous shaking at 700 rpm. MSD IFNα-2α plates were washed three times with 150 μl wash buffer (1x HBSS, 0.05% Tween).
After blocking the plates with 100 μl block solution/well (1x HBSS with 0.2% Tween, 2% BSA) for 60 min at room temperature and continuous shaking at 700 rpm, plates were emptied as dry as possible by dumping just before continuing with the human plasma.
Whole Blood assay plates were centrifuged at 1600 rpm for 10 minutes. 25 μl of supernatant was transferred with a pipetting robot from each whole blood plate to the corresponding IFNα-2α plate. Plates were sealed with microplate seals and kept at room temperature again under continuous shaking at 700 rpm for two hours.
Next MSD IFNα-2α plates were washed three times with 150 μl wash buffer (1×HBSS, 0.05% Tween), before adding 25 μl MSD SULFO-TAG IFNα-2α Antibody solution (1:100 diluted in Diluent 3 (Meso Scale Diagnostics #R50AP-2) to each well of the plates.
Afterwards plates were sealed with microplate seals and kept at room temperature again under continuous shaking at 700 rpm for two hours. Finally, MSD IFNα-2α plates were washed three times with 150 μl wash buffer (1×HBSS, 0.05% Tween). 150 μl 2× Read buffer was added to each well and plates were immediately measured with the MSD Sector S600 Reader using the vendor barcode.
For data evaluation and calculation, % control calculation of each well was based on the mean of high (DNA stimulated control) and mean of low (unstimulated control) controls by using the following formula:
[counts(sample)−counts(low))/(counts(high)−counts(low))]*100
The IC50 values were calculated using the standard 4 parameter logistic regression formula. Calculation: [y=(a−d)/(1+(x/c)^b)+d], a=low value, d=high value; x=conc M; c=IC50 M; b=slope

[4] = inhibition of IFN induction in virus-stimulated THP1 cells, read-out: THP1(vir) IC50
[5] = inhibition of IFN induction in cGAMP-stimulated THP1 cells, read-out: THP1(cGAMP) IC50 (converted)
[6] = read-out: THP1(vir) IC50, inhibition of IFN induction in virus-stimulated THP1 cells
[7] = cGAMP-stimulated THP1 cells, counter assay, read-out: THP1(cGAMP) IC50 (converted)
[8] = read-out: THP1(vir) IC50, virus-stimulated THP1 cells, IFN induction

Chain of cGAS (Q8N884 whole entry): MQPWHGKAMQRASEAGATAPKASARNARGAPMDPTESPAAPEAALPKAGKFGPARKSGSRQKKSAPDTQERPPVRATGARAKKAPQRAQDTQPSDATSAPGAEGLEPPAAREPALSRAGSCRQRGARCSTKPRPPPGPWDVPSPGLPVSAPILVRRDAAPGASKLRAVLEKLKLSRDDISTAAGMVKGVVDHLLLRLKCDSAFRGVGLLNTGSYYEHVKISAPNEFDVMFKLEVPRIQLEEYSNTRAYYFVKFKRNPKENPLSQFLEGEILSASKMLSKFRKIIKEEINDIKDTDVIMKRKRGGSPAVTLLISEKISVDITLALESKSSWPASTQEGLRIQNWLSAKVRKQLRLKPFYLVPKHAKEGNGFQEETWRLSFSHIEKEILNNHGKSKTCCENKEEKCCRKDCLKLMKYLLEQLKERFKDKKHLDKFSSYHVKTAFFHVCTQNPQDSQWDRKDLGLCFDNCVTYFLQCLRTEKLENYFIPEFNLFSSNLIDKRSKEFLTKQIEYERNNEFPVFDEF

Row | SMILES | IC50 (cGAS) [nM] | IC50 [1, 4] [nM] | IC50 [2, 5] [nM] | Ratio THP1(cGAMP) IC50 / THP1(vir) IC50 [2] | IC50 [3] [nM] | also measured
1 | CC(=O)Nc1ccc(-c2cnc(O[C@H]3C[C@@H](C(=O)O)N(c4nc(C(F)(F)F)nc5c4oc4ccccc45)C3)c(N3CCOC4(COC4)[C@@H]3C)c2)cn1 [Example 3.10] | 8 | 5 | 7910 | 1713 | 10 | 
2 | CC1(C#N)CCCN(c2cc(Cl)cnc2O[C@H]2C[C@@H](C(=O)O)N(c3nc(C(F)F)nc4c3oc3ccccc34)C2)C1 (stereo partly shown) [Example 1.04] |  | 327 | 10000 | 31 | 3700 | 
3 | C#Cc1cnc(O[C@H]2C[C@@H](C(=O)O)N(c3nc(C(F)F)nc4c3oc3ccccc34)C2)c(N2CCOC3(COC3)C2)c1 [Example 1.25] |  |  |  | >32 | 551 | IC50 [1, 6]: 517 nM; IC50 ([2]; read-out: THP1(cGAMP) IC50): > 16600 nM
4 | N#CC1CN(c2cc(Cl)cnc2O[C@H]2C[C@@H](C(=O)O)N(c3nc(C(F)(F)F)nc4c3oc3ccccc34)C2)CCO1 (stereo partly drawn) [Example 1.01, (2S,4S)-4-{[5-Chloro-3-(2-cyanomorpholin-4-yl)pyridin-2-yl]oxy}-1-[4-(trifluoromethyl)-8-oxa-3,5-diazatricyclo[7.4.0.0^2,7]trideca-1(13),2,4,6,9,11-hexaen-6-yl]pyrrolidine-2-carboxylic acid] | 8 | 829 | 24600 | 30 |  | 
5 | O=C(O)[C@@H]1C[C@H](Oc2ncc(Cl)cc2N2CCc3nocc3C2)CN1c1nc(C(F)(F)F)nc2c1oc1ccccc12 [Example 1.07] | 5 | 781 | 18700 | 24 |  | 
6 | Cc1nc(N2C[C@@H](Nc3ccncc3)C[C@H]2C(=O)O)c2oc3ccccc3c2n1 [Example 38, reference compound] |  |  |  |  |  | IC50 [2, 7]: > 17000 nM
7 | C#Cc1cnc(O[C@H]2C[C@@H](C(=O)O)N(c3nc(C(F)F)nc4c3oc3ccccc34)C2)c(N2CCOC3(COC3)[C@@H]2C)c1 [Example 1.11] |  | 6 | 18500 |  | 5 | 
8 | Cc1nc(N2CCC[C@H]2C(=O)O)c2oc3ccccc3c2n1 [Example 15, reference compound] |  |  |  |  |  | IC50 [2, 7]: > 17000 nM
9 | C[C@@H]1OCCN(c2cc(Cl)cnc2O[C@H]2C[C@@H](C(=O)O)N(c3nc(C(F)(F)F)nc4c3oc3ccccc34)C2)[C@H]1C [Example 1.06] | 65 | 951 | 14300 | 15 |  | 
10 | O=C(O)[C@@H]1C[C@H](Oc2ncc(Cl)cc2N2CCc3nocc3C2)CN1c1nc(C(F)F)nc2c1oc1ccccc12 [Example 1.08] | 4 | 831 | 18700 | 23 |  | 
11 | CC(C)(C(=O)N[C@H]1C[C@@H](C(=O)O)N(c2nc(C(F)(F)F)nc3c2oc2ccccc23)C1)c1cn[nH]c1 [Example 58, reference compound] |  |  |  |  |  | IC50 [1, 8]: 21000 nM
12 | C#Cc1cnc(O[C@H]2C[C@@H](C(=O)O)N(c3nc(Cl)nc4c3oc3ccccc34)C2)c(N2CCOC[C@@H]2C)c1 [Example 1.32] | 4 | 487 |  |  |  | 
13 | C[C@@H]1N(c2cc(-c3cccnc3C#N)cnc2O[C@H]2C[C@@H](C(=O)O)N(c3nc(C(F)(F)F)nc4c3oc3ccccc34)C2)CCOC12COC2 [Example 3.28] | 14 | 712 | 16400 | 23 |  | 
14 | O=C(O)[C@@H]1C[C@H](Oc2ncc(Br)cc2N2CCOC3(COC3)C2)CN1c1nc(C(F)F)nc2c1oc1ccccc12 [Example 1.24] |  | 848 | > 16600 | >20 | 850 | 
15 | Cc1nc(N2C[C@@H](CC(=O)Nc3ccncc3)C[C@H]2C(=O)O)c2oc3ccccc3c2n1 [Example 28, reference compound] |  |  |  |  |  | IC50 [1, 8]: > 32000 nM
16 | C#Cc1cnc(O[C@H]2C[C@@H](C(=O)O)N(c3nc(C)nc4c3oc3ccccc34)C2)c(N2CCOC3(COC3)[C@@H]2C)c1 [Example 2.03] |  | < 5 | 16400 |  | 9 | 
17 | C[C@@H]1N(c2cc(-c3ccnc(N(C)C)c3)cnc2O[C@H]2C[C@@H](C(=O)O)N(c3nc(C(F)F)nc4c3oc3ccccc34)C2)CCOC12COC2 [Example 4.01, (2S,4S)-1-[4-(Difluoromethyl)-8-oxa-3,5-diazatricyclo[7.4.0.0^2,7]trideca-1(9),2(7),3,5,10,12-hexaen-6-yl]-4-({N,N-dimethyl-5-[(9S)-9-methyl-2,5-dioxa-8-azaspiro[3.5]nonan-8-yl]-[3,4′-bipyridin]-2′-yl}oxy)pyrrolidine-2-carboxylic acid] |  |  |  |  | 5 | IC50 [1, 6]: < 5 nM; IC50 ([2]; read-out: THP1(cGAMP) IC50): 6680 nM
